Experiment: gradient 5% acetonitrile 3 min, to 50% in 2 min, to 85% in 15 min, held 3 min, 100 µL/min
Conditions: column: Zorbax Extend-C18 2.1 x 50 mm; eluents: water / acetonitrile, 0.1% formic acid
In short: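 The system's dead and dwell volumes were 40 μL and 900 μL, with a Zorbax Extend-C18 column (2.1 × 50 mm, 1.8 μm) run at 100 μL/min in water and acetonitrile containing 0.1% formic acid each. Pure standards were analyzed in mixtures of ~100 molecules by HPLC–quadrupole time-of-flight mass spectrometry in positive and negative ionization mode. Retention time was assigned from computationally picked, manually inspected adduct peaks.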

Row | RP-LC retention time | Compound
1 | 982 s | C=CCN1C(=O)COc2ccc(-c3csc(NC(=O)c4ccccc4)n3)cc21
2 | 678 s | CC(=O)Nc1nnc(SCc2nnc(-c3ccc4c(c3)OCO4)o2)s1
3 | 647 s | O=C(CCNc1c(-c2ccc(F)cc2)nc2cnccn12)NCC1CC1
4 | 845 s | COc1ccc(-c2ccnc3nc(C(C)C)nn23)cc1
5 | 720 s | CCCN1C(=O)c2cccnc2Sc2cc(C(=O)N3CCCC3)ccc21
6 | 803 s | O=C(NC1CC1)c1ccc(OCC2CCCN(C(=O)c3ccc(F)cc3)C2)cc1 (configuration not stated)
7 | 552 s | CN(C)[C@@H]1CN(C(=O)c2n[nH]c3ccccc23)C[C@H]1CO
8 | 1010 s | COc1ccc(-c2csc(NC(=O)CS(=O)(=O)c3ccc(C)cc3)n2)c(OC)c1
9 | 879 s | C=CCNC(=O)c1cn(-c2cc(-c3nc(C(C)(C)C)no3)ccn2)cn1
10 | 899 s | COC(=O)c1cc(OCC(=O)Nc2ccc(Cl)cc2)c2cc(OC)ccc2n1
11 | 683 s | O=C(Cn1ccn2nc(-c3ccc(F)cc3)c(CO)c2c1=O)N1CCCC1
12 | 986 s | Cc1ccc2snc(C(=O)NC(C)C)c2c1
13 | 881 s | CCn1nc(CNC(=O)c2ccc(Br)o2)c2ccccc21
14 | 900 s | COc1ccc(-c2nnc(COc3ccc(NC(=O)Cc4cccs4)cc3)o2)cc1
15 | 705 s | Nc1nc(N2CCC3(CC2)OCCO3)ncc1C(=O)NCc1ccccc1
16 | 767 s | O=S(=O)(c1ccc(-c2cnc(C3CCC3)o2)s1)N1CCN(c2ccccn2)CC1
17 | 588 s | Cc1nc2c(c(N3CCSCC3)n1)CCC2
18 | 624 s | Cc1ccc(NC(=O)Nc2ccc3nc(N4CCN(C)CC4)cc(C)c3c2)c([N+](=O)[O-])c1
19 | 926 s | Cc1oc2cc(OCC#N)ccc2c(=O)c1-c1ccc(Cl)cc1

Row | RP-LC retention time | Compound
20 | 931 s | Cc1sc(NC(=O)c2ccccc2)nc1-c1ccc2c(c1)NC(=O)C(C)O2 (configuration not stated)
21 | 736 s | O=C(c1cn2c(n1)CSCC2)N(Cc1ccccc1)Cc1ccco1
22 | 855 s | COc1ccc(N2CC(C(=O)N3CCC(c4noc(-c5ccccc5)n4)CC3)CC2=O)cc1 (configuration not stated)
23 | 978 s | CCc1ccccc1NC(=O)C1CCC(=O)N1S(=O)(=O)c1ccc(C)c(C)c1 (configuration not stated)
24 | 867 s | CCCN1C(=O)c2c(C(=O)NCCCc3ccccc3)ncn2CC1(C)C(=O)NC1CCCC1 (configuration not stated)
25 | 679 s | NCC(O)COc1cccc2ccccc12 (configuration not stated)
26 | 814 s | CS(=O)(=O)NCCc1ccc(CC2CCN(S(=O)(=O)c3cccnc3)CC2)cc1
27 | 762 s | Cc1cc(C)n(-c2cc(N3CCCC(C(=O)Nc4cc(C)on4)C3)ncn2)n1 (configuration not stated)
28 | 852 s | O=C(c1ccccc1)N1CCN(c2nc(CN3CCOCC3)cs2)CC1
29 | 750 s | O=C(Cn1ncc2c(c1=O)N(CC1CC1)C(=O)CS2)NCc1ccc(F)cc1
30 | 953 s | CCn1nnc2cc(-c3noc(C4CC(=O)N(c5ccc(C)c(C)c5)C4)n3)ccc21 (configuration not stated)
31 | 1190 s | CCCSCCCNc1nc(-c2nnc(-c3cccc(C)c3)o2)nc2ccccc12
32 | 765 s | CC1=C(c2ccc(Cl)cc2)S(=O)(=O)N=C1N1CCCN(C(=O)c2ccccn2)CC1
33 | 964 s | Cc1noc(-c2cccc(OC3CN(S(=O)(=O)c4c(C)noc4C)C3)c2)n1
34 | 1210 s | CCn1c(C)c(C(=O)C(C)N(CCC(C)C)C(=O)c2ccccc2Cl)c(C)c1C(=O)OC (configuration not stated)
35 | 639 s | O=C(NC1CC(=O)N(C2CC2)C1)c1ccc(Cl)s1 (configuration not stated)
36 | 1090 s | CCCc1ccc(S(=O)(=O)N2CCC(C(=O)NCc3csc(-c4ccccc4)n3)CC2)cc1
37 | 865 s | COc1ccc(C)cc1NC(=O)N1CCC(c2nc(C(=O)N3CCCC3)c(C)o2)CC1

From the METLIN SMRT retention time set (Domingo-Almenara et al. 2019)
